Measured values taken from patent US6391896B1, “3-Tetrahydropyridin-4-yl indoles for treatment of psychotic disorders” (Duphar International Research BV, priority 1998, dated 2002).

melting point: 197 to 199 °C
Compound: O=C1c2ccc(F)cc2C(=O)N1CCCCN1CC=C(c2c[nH]c3ccc(F)cc23)CC1
